Values after ≈ are worked out from the molar mass of the structure shown. Like-named read-outs stand apart in the source and are kept apart here.
Columns and labels:
Janus kinase 3 (JAK3) = target: T1, Janus kinase 3 (JAK3) (Homo sapiens, UniProt P52333); details: cited from earlier work
T1 sequence (P52333 1-1124): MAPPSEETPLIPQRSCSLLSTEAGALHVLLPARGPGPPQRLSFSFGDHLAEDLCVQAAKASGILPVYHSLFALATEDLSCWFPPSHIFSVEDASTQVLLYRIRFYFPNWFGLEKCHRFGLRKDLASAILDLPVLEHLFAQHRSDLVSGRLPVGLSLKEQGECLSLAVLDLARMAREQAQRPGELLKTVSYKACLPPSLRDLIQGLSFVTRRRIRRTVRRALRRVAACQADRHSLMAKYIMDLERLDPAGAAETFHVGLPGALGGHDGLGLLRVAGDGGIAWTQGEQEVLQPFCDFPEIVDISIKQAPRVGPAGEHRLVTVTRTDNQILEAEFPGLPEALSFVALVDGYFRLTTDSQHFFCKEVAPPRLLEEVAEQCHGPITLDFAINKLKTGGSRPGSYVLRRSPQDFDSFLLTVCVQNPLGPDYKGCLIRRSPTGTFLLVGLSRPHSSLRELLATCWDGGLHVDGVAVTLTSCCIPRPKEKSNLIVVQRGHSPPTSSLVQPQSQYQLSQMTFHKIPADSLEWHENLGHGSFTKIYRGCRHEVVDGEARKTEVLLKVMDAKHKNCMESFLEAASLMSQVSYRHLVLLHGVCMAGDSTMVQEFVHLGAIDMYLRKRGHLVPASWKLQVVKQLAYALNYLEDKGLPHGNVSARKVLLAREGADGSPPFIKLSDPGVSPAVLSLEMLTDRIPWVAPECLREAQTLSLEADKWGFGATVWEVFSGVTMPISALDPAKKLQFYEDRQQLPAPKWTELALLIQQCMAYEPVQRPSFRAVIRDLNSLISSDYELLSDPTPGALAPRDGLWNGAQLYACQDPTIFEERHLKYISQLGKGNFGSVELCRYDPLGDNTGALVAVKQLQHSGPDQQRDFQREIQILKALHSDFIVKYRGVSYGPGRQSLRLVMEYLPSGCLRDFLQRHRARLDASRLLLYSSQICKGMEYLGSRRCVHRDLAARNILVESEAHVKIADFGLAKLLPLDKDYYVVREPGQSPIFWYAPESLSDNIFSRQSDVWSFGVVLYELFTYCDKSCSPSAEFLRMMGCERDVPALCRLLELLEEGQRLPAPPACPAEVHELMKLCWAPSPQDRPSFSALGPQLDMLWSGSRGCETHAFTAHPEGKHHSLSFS

[1] = Water solubility of exemplified compounds, USP solubility definition; format: physicochemical
Description: “Solubility” generally refers to the degree to which a substance dissolves in a solvent to make a solution (usually expressed as grams of solute per liter of solvent). Solubility of one fluid (liquid or gas) in another may be complete (totally miscible; e.g., methanol and water) or partial (e.g., oil and water dissolve only slightly). In general, “like dissolves like” (e.g., aromatic hydrocarbons dissolve in each other but not in water). Solubility is the ability of a solid, liquid, or gaseous chemical substance (referred to as the solute) to dissolve in a solvent (usually a liquid) and form a solution. The solubility of a substance depends on the types of solvent used, their polarity, and the temperature and pressure to which they are subjected. The solubility of a substance in a particular solvent is measured by the concentration of the saturated solution. A solution is considered saturated when adding additional solute no longer increases the concentration of the solution. The degree of solubility ranges widely depending on the substances, from infinitely soluble (fully miscible), such as ethanol in water, to poorly soluble, such as silver chloride in water. The term “insoluble” is often applied to poorly soluble compounds. Under certain conditions, the equilibrium solubility can be exceeded, yielding a supersaturated solution.
“Poorly water-soluble chemical compounds”: The United States Pharmacopeia (USP) designates the solubility of drugs as parts of solvent required for one part solute. […] The USP lists the solubility of a drug as the quantity of milliliters of solvent in which 1 g of solute will dissolve and assigns a descriptive term in the summary provided below.

[2] = cited from earlier work
[3] = cited from earlier work; remark: listed apart in the source
[4] = cited from earlier work; remark: listed apart in the source
[5] = Solubility screening panel in DEGEE; format: physicochemical
Description: Fisetin, trans-resveratrol, and milk thistle extract (comprising silymarin) were all found to be soluble in DEGEE in a solubility screening panel evaluating surfactants and other emulsifiers for use in topical delivery. An initial objective was to find a suitable miscible oil for use in hair applications, such as argan, sesame, sunflower, fractionated coconut, and grape seed oils. […] The next step was to evaluate oil soluble emulsifiers, such as glyceryl oleate, sorbitan oleate, lauryl oleate, and lauryl sulfate. […] Oleic acid (a fatty acid) is known to be miscible with DEGEE, but it is a […] fatty acid, which makes it an unfavorable choice for use in a long-term topical dosing formulation. Oleic acid was evaluated with a mixture of sorbitan laurate, polyglyceryl-4 laurate, and dilauryl citrate. This formulation made a miscible mixture with fisetin, trans-resveratrol, and milk thistle dissolved in DEGEE. However, the dilution of the mixture with water created a suspension, and once again, the solids precipitated out after approximately one hour.

[6] = cited from earlier work; remark: listed apart in the source

C/C=C(/C)C(=O)O[C@H]1[C@@H]2[C@H](C)C(=O)O[C@@H]2C[C@@H](C)[C@@H]2C=CC(=O)[C@]21C [Brevilin A]
inhibition of JAK3 (Janus kinase 3 (JAK3)): inhibit

O=C1c2c(O)cc(O)cc2O[C@H](c2ccc(O)c(O)c2)[C@H]1O [Dihydroquercetin]
Definition (USP solubility descriptive term) ([1]; water): very slightly insoluble | mass_water/mass_solute ([1]; water): 2,500 | Water Solubility [2]: 400 µg/mL

O=C(O[C@@H]1Cc2c(O)cc(O)cc2O[C@@H]1c1cc(O)c(O)c(O)c1)c1cc(O)c(O)c(O)c1 [EGCG, [(2R,3R)-5,7-dihydroxy-2-(3,4,5-trihydroxyphenyl)chroman-3-yl]3,4,5-trihydroxybenzoate]
time at which blood levels peak ([3]; after consumption (oral)): ≤ 1.7 h | time by which majority of unchanged EGCG is excreted into the urine ([3]; from almost immediately): ≤ 8 h | absorbed plasma half-life ([3]; oral): about 5 hours

O=c1c(O)c(-c2ccc(O)c(O)c2)oc2cc(O)ccc12 [Fisetin, 2-(3,4-dihydroxyphenyl)-3,7-dihydroxy-4H-1-benzopyran-4-one]
Definition (USP solubility descriptive term) ([1]; water): practically insoluble | mass_water/mass_solute ([1]; water): 100,000 | reported aqueous solubility [2]: about 0.01 mg/mL | aqueous solubility ([2]; literature): 10.45 µg/mL (≈ 36.5 µM) | Water Solubility [2]: 10 µg/mL | log P [4]: 3.2 | solubility in DEGEE [5]: soluble

Oc1ccc(/C=C/c2cc(O)cc(O)c2)cc1 [trans-Resveratrol, 5-[(E)-2-(4-hydroxyphenyl)ethen-1-yl]benzene-1,3-diol]
Definition (USP solubility descriptive term) ([1]; water): practically insoluble | mass_water/mass_solute ([1]; water): 33,333 | reported aqueous solubility [2]: about 0.03 mg/mL | half-life ([6]; in vivo): about 15 min | bioavailability ([6]; oral): about 0.5% | solubility in DEGEE [5]: soluble

Silymarin
Definition (USP solubility descriptive term) [1]: very slightly insoluble | mass_water/mass_solute [1]: 2,500
